Source: paper PMC4529466, “Intradermal insulin infusion achieves faster insulin action than subcutaneous infusion for 3-day wear” (Drug Delivery and Translational Research, 2015)

Test system: blood glucose
Experiment: Postprandial blood glucose pharmacodynamics after meal bolus, 3-day ID vs SC infusion
Format: in vivo, human (T1DM patients)
Details: ID; for BGavg0–1 / BGmax0–1 / ΔAUC-BG0–1 / ΔBGmax0–1 / BGavg0–1.5 / BGmax0–1.5 / ΔAUC-BG0–1.5 / ΔBGmax0–1.5 / BGavg0–2 / BGmax0–2 / ΔAUC-BG0–2 / ΔBGmax0–2 / BGavg0–4 / BGmax0–4 / ΔAUC-BG0–4 / ΔBGmax0–4 / BG1 / ΔBG1 / BG1.5 / ΔBG1.5 / BG2 / ΔBG2 / BG4 / ΔBG4: mean ± SD; for BG1 / ΔBG1: at 1 h; for BG1.5 / ΔBG1.5: at 1.5 h; for BG2 / ΔBG2: at 2 h; for BG4 / ΔBG4: at 4 h
Text: This was a single center, open-label, two-period crossover study, randomized by infusion order, in T1DM patients on continuous subcutaneous insulin infusion (CSII). The protocol was approved by an independent ethics committee (Ethikkommission der Ärztekammer Nordrhein, Düsseldorf, Germany), appropriate regulatory bodies (German Federal Institute for Drugs and Medical Devices (BfArM)), and conducted in compliance with good clinical practice (GCP), the Declaration of Helsinki, and applicable regulatory requirements.
The study was completed over a multi-week period consisting of three study visits: a screening visit (V1) and two interventional visits (V2 and V3). After establishing eligibility and enrollment, patients received treatment during two interventional visits: one SC and one ID basal/bolus infusion of insulin aspart (NovoRapid® U-100, Novo Nordisk, Copenhagen, Denmark) administered over 3 days in a randomized order.
Individual meal bolus doses were determined based on patient self-reported insulin to carbohydrate ratios and insulin sensitivity, historical self-reported insulin usage for meal coverage, and clinician review and adjustment of insulin usage during the in-clinic BG stabilization period the evening prior to the first morning meal. Basal insulin infusion rates were initiated based on the patient’s known daily delivery profile and could be adjusted by the clinician to maintain levels within 70–160 mg/dL according to a predetermined sliding scale and hourly changes in glycemia. A continuous glucose monitor (Seven Plus®, DexCom Inc., San Diego, CA) calibrated per manufacturer’s recommendations was applied to continuously monitor glycemia as a safety measure, in addition to periodic blood sampling for BG determination.
After maintaining targeted blood glucose range during the preceding night, bolus insulin doses were administered via the respective infusion catheter prior to standardized breakfast and lunch test meals on each of the three treatment days. Each meal insulin bolus was calculated based on the patient’s insulin sensitivity and previous hours change in BG per sliding scale then delivered immediately prior to breakfast (t = 0 min) and lunch (t = 360 min) consumption. Breakfast was a high glycemic index (60 g carbohydrates) solid meal, and lunch was a mixed meal based on the individual’s calculated daily energy intake and equivalent in caloric composition by day. Breakfast and lunch meals were consumed within 15 min followed by serial blood sampling with BG monitoring for a period of 6 and 4 h, respectively. Patients were asked to remain sedentary for 2 h after meals. Identical study procedures were utilized for the remaining dosing visit days (Fig. 2).
To assess insulin absorption kinetics and glycemic response, blood samples for measurements of insulin aspart and blood glucose in serum were drawn at predefined time points throughout dosing visits. Serial samples for safety BG determination, but not PK analysis, were obtained at a minimum every 2 h. Meal PK/PD analysis samples were acquired immediately pre-bolus and for 4–6 h post-bolus for breakfast and lunch meals, with a higher frequency during the first 2 h to capture insulin and BG peak levels {Post-bolus breakfast time points (min): 0, 10, 15, 20, 25, 30, 35, 40, 45, 50, 55, 60, 65, 70, 80, 90, 120, 150, 180, 210, 240, 300, 330, 360; Post-bolus lunch time points (min): 0, 10, 20, 30, 40, 50, 60, 70, 80, 90, 120, 180, 240, 300}. Sampling times were based on previous clinical study experience for bolus microneedle insulin delivery and had increased sampling frequency in the first 90 min post-delivery to capture the rapid insulin peaks from microneedle ID delivery. Blood samples for evening meal and basal period PK assessment could not be obtained due to daily blood draw volume limits for patient safety. Serum insulin aspart was measured by a third party laboratory (IKFE GmbH, Mainz, Germany) using a validated insulin assay (Invitron ELISA kit). […]

[1] = 0–1 h, Days 1–3 combined, all test meals, n = 150–156
[2] = 0–1 h, across all study days and meals
[3] = 0–1.5 h, Days 1–3 combined, all test meals, n = 150–156
[4] = 0–1.5 h, across all study days and meals
[5] = 0–2 h, Days 1–3 combined, all test meals, n = 150–156
[6] = 0–2 h, across all study days and meals
[7] = 0–4 h, Days 1–3 combined, all test meals, n = 150–156
[8] = Days 1–3 combined, all test meals, n = 150–156

Substance: insulin aspart
- BGavg0–1 (0–1 h, Day 1, across meals): 135 ± 45.9 mg/dL
- BGmax0–1 (0–1 h, Day 1, across meals): 159 ± 53.1 mg/dL
- ΔAUC-BG0–1 (0–1 h, Day 1, across meals): 17.2 ± 22.3 mg·h/dL
- ΔBGmax0–1 (0–1 h, Day 1, across meals): 41.3 ± 32.1 mg/dL
- BGavg0–1 (0–1 h, Day 2, across meals): 138 ± 37.4 mg/dL
- BGmax0–1 (0–1 h, Day 2, across meals): 162 ± 43.0 mg/dL
- ΔAUC-BG0–1 (0–1 h, Day 2, across meals): 18.7 ± 22.0 mg·h/dL
- ΔBGmax0–1 (0–1 h, Day 2, across meals): 43.1 ± 30.2 mg/dL
- BGavg0–1 (0–1 h, Day 3, across meals): 136 ± 37.3 mg/dL
- BGmax0–1 (0–1 h, Day 3, across meals): 162 ± 41.5 mg/dL
- ΔAUC-BG0–1 (0–1 h, Day 3, across meals): 18.5 ± 19.2 mg·h/dL
- ΔBGmax0–1 (0–1 h, Day 3, across meals): 44.2 ± 28.1 mg/dL
- BGavg0–1 [1]: 136 ± 40.5 mg/dL
- BGmax0–1 [1]: 161 ± 46.2 mg/dL
- ΔAUC-BG0–1 [1]: 18.1 ± 21.2 mg·h/dL
- ΔBGmax0–1 [1]: 42.8 ± 30.1 mg/dL
- Intra-subject variability of BGavg [2]: 26.3 %CV
- Intra-subject variability of BGmax [2]: 25.2 %CV
- BGavg0–1.5 (0–1.5 h, Day 1, across meals): 137 ± 42.1 mg/dL
- BGmax0–1.5 (0–1.5 h, Day 1, across meals): 160 ± 46.8 mg/dL
- ΔAUC-BG0–1.5 (0–1.5 h, Day 1, across meals): 32.4 ± 41.7 mg·h/dL
- ΔBGmax0–1.5 (0–1.5 h, Day 1, across meals): 45.0 ± 34.5 mg/dL
- BGavg0–1.5 (0–1.5 h, Day 2, across meals): 144 ± 39.9 mg/dL
- BGmax0–1.5 (0–1.5 h, Day 2, across meals): 169 ± 45.6 mg/dL
- ΔAUC-BG0–1.5 (0–1.5 h, Day 2, across meals): 36.8 ± 40.8 mg·h/dL
- ΔBGmax0–1.5 (0–1.5 h, Day 2, across meals): 49.5 ± 33.5 mg/dL
- BGavg0–1.5 (0–1.5 h, Day 3, across meals): 143 ± 40.2 mg/dL
- BGmax0–1.5 (0–1.5 h, Day 3, across meals): 172 ± 45.0 mg/dL
- ΔAUC-BG0–1.5 (0–1.5 h, Day 3, across meals): 39.3 ± 36.8 mg·h/dL
- ΔBGmax0–1.5 (0–1.5 h, Day 3, across meals): 54.8 ± 34.2 mg/dL
- BGavg0–1.5 [3]: 141 ± 40.6 mg/dL
- BGmax0–1.5 [3]: 167 ± 45.8 mg/dL
- ΔAUC-BG0–1.5 [3]: 36.0 ± 39.8 mg·h/dL
- ΔBGmax0–1.5 [3]: 49.5 ± 34.1 mg/dL
- Intra-subject variability of BGavg [4]: 25.6 %CV
- Intra-subject variability of BGmax [4]: 24.5 %CV
- BGavg0–2 (0–2 h, Day 1, across meals): 139 ± 43.8 mg/dL
- BGmax0–2 (0–2 h, Day 1, across meals): 165 ± 47.8 mg/dL
- ΔAUC-BG0–2 (0–2 h, Day 1, across meals): 47.8 ± 63.1 mg·h/dL
- ΔBGmax0–2 (0–2 h, Day 1, across meals): 49.4 ± 36.7 mg/dL
- BGavg0–2 (0–2 h, Day 2, across meals): 146 ± 41.9 mg/dL
- BGmax0–2 (0–2 h, Day 2, across meals): 171 ± 46.5 mg/dL
- ΔAUC-BG0–2 (0–2 h, Day 2, across meals): 53.9 ± 61.9 mg·h/dL
- ΔBGmax0–2 (0–2 h, Day 2, across meals): 52.2 ± 33.7 mg/dL
- BGavg0–2 (0–2 h, Day 3, across meals): 148 ± 41.8 mg/dL
- BGmax0–2 (0–2 h, Day 3, across meals): 176 ± 44.9 mg/dL
- ΔAUC-BG0–2 (0–2 h, Day 3, across meals): 62.8 ± 56.3 mg·h/dL
- ΔBGmax0–2 (0–2 h, Day 3, across meals): 59.5 ± 34.9 mg/dL
- BGavg0–2 [5]: 144 ± 42.4 mg/dL
- BGmax0–2 [5]: 170 ± 46.4 mg/dL
- ΔAUC-BG0–2 [5]: 54.5 ± 60.6 mg·h/dL
- ΔBGmax0–2 [5]: 53.5 ± 35.2 mg/dL
- Intra-subject variability of BGavg [6]: 25.9 %CV
- Intra-subject variability of BGmax [6]: 23.8 %CV
- BGavg0–4 (0–4 h, Day 1, across meals): 141 ± 44.0 mg/dL
- BGmax0–4 (0–4 h, Day 1, across meals): 178 ± 49.1 mg/dL
- ΔAUC-BG0–4 (0–4 h, Day 1, across meals): 105 ± 148 mg·h/dL
- ΔBGmax0–4 (0–4 h, Day 1, across meals): 64.0 ± 43.6 mg/dL
- BGavg0–4 (0–4 h, Day 2, across meals): 148 ± 41.3 mg/dL
- BGmax0–4 (0–4 h, Day 2, across meals): 186 ± 43.2 mg/dL
- ΔAUC-BG0–4 (0–4 h, Day 2, across meals): 120 ± 140 mg·h/dL
- ΔBGmax0–4 (0–4 h, Day 2, across meals): 69.4 ± 36.8 mg/dL
- BGavg0–4 (0–4 h, Day 3, across meals): 156 ± 45.0 mg/dL
- BGmax0–4 (0–4 h, Day 3, across meals): 188 ± 49.8 mg/dL
- ΔAUC-BG0–4 (0–4 h, Day 3, across meals): 156 ± 140 mg·h/dL
- ΔBGmax0–4 (0–4 h, Day 3, across meals): 70.4 ± 42.2 mg/dL
- BGavg0–4 [7]: 148 ± 43.6 mg/dL
- BGmax0–4 [7]: 184 ± 47.4 mg/dL
- ΔAUC-BG0–4 [7]: 126 ± 144 mg·h/dL
- ΔBGmax0–4 [7]: 67.8 ± 40.8 mg/dL
- Intra-subject variability of BGmax (0–4 h, across all study days and meals): 21.1 %CV
- BG1 (Day 1, across meals): 151 ± 56.0 mg/dL
- ΔBG1 (Day 1, across meals): 33.3 ± 38.2 mg/dL
- BG1 (Day 2, across meals): 155 ± 45.8 mg/dL
- ΔBG1 (Day 2, across meals): 35.8 ± 35.4 mg/dL
- BG1 (Day 3, across meals): 156 ± 45.2 mg/dL
- ΔBG1 (Day 3, across meals): 38.2 ± 32.9 mg/dL
- BG1 [8]: 154 ± 49.3 mg/dL
- ΔBG1 [8]: 35.6 ± 35.5 mg/dL
- BG1.5 (Day 1, across meals): 146 ± 52.2 mg/dL
- ΔBG1.5 (Day 1, across meals): 31.0 ± 44.4 mg/dL
- BG1.5 (Day 2, across meals): 155 ± 51.4 mg/dL
- ΔBG1.5 (Day 2, across meals): 35.8 ± 44.4 mg/dL
- BG1.5 (Day 3, across meals): 163 ± 51.3 mg/dL
- ΔBG1.5 (Day 3, across meals): 45.7 ± 41.2 mg/dL
- BG1.5 [8]: 154 ± 51.8 mg/dL
- ΔBG1.5 [8]: 37.2 ± 43.6 mg/dL
- BG2 (Day 1, across meals): 145 ± 54.5 mg/dL
- ΔBG2 (Day 1, across meals): 30.2 ± 48.5 mg/dL
- BG2 (Day 2, across meals): 152 ± 51.9 mg/dL
- ΔBG2 (Day 2, across meals): 33.1 ± 46.1 mg/dL
- BG2 (Day 3, across meals): 165 ± 50.5 mg/dL
- ΔBG2 (Day 3, across meals): 48.0 ± 43.3 mg/dL
- BG2 [8]: 154 ± 52.7 mg/dL
- ΔBG2 [8]: 36.7 ± 46.5 mg/dL
- BG4 (Day 1, across meals): 145 ± 52.1 mg/dL
- ΔBG4 (Day 1, across meals): 29.3 ± 54.1 mg/dL
- BG4 (Day 2, across meals): 147 ± 55.5 mg/dL
- ΔBG4 (Day 2, across meals): 28.0 ± 55.7 mg/dL
- BG4 (Day 3, across meals): 160 ± 60.1 mg/dL
- ΔBG4 (Day 3, across meals): 43.6 ± 54.8 mg/dL
- BG4 [8]: 150 ± 55.9 mg/dL
- ΔBG4 [8]: 33.3 ± 54.9 mg/dL
- BG at 1 h (p = 0.0121 vs SC): 154
- Intra-subject variability of BG (time 1 h, across all study days and meals): 29.1 %CV
- Intra-subject variability of BG (time 1.5 h, across all study days and meals): 31.5 %CV
- Intra-subject variability of ΔBG (time 2 h, across all study days and meals): 90.2 %CV
